# Where “and” joins values, the source holds several entries; their conditions need not be identical. Equal values may be shown once. Read-outs that look alike come from different tables or passages of the source. Marks after values point to notes of the source that are not given here.
# Tested on: lentivirus with D614G SC2 spike protein, A549 cells overexpressing ACE2 and TMPRSS2
# Type: cell-based, SARS-CoV-2
# Design: key to qualitative inhibition of SC2 uptake (heatmap): –: −: inactive; ++: qualitative inhibition of SC2 uptake
# Conditions: for IC50: read-out: IC50 of SC2 lentivector entry
SMILES,"VE, vector entry",also measured
CC(C)(C)OC(=O)NCCNC(=O)O[C@H]1CSS(=O)(=O)C[C@H]1O[Si](C)(C)C(C)(C)C (racemic) [Compound 50],,"VE, vector entry (inhibitor 5 μM (1 h), lentivirus 6 h, 3 days expression, n = 3, ±SD): 100 ± 40%"
"O=S1(=O)C[C@H](O)[C@H](O)CS1 (stereo in doubt) [Compound 3, (4S,5R)-4,5-dihydroxy-1,2-dithiane-1,1-dioxide]",,inhibition of SC2 lentivector entry (in words): inactive; qualitative inhibition of SC2 uptake (heatmap): ++
CC(C)(C)[Si](C)(C)OC1CS(=O)(=O)SCC1OC(=O)NCCCCCCNC(=O)OC1CSS(=O)(=O)CC1O[Si](C)(C)C(C)(C)C (stereo not drawn) [Compound 4],46 ± 8%,IC50: ~10 µM and ~5 µM
CC(C)(C)[Si](C)(C)O[C@@H]1CS(=O)(=O)SC[C@@H]1O [Compound 6],105 ± 3%,
O=C1O[C@H]2CSS(=O)(=O)C[C@H]2O1 [Compound 11],4 ± 1%,
CC1(C)O[C@H]2CSS(=O)(=O)C[C@H]2O1 [Compound 13],80 ± 20%,
"O=C(O)c1cc(SSc2ccc([N+](=O)[O-])c(C(=O)O)c2)ccc1[N+](=O)[O-] [Compound 16, 5,5’-Dithiobis(2-nitrobenzoic acid), reference compound]",>100%,inhibition of SC2 lentivector entry (in words) (5 μM): weak activation rather than inhibition
O=C(NCCCCCCNC(=O)O[C@H]1CSS(=O)(=O)C[C@H]1OCc1ccccc1)O[C@H]1CSS(=O)(=O)C[C@H]1OCc1ccccc1 [Compound 33],56 ± 12%,IC50: ~5 µM
CC(C)(C)OC(=O)NCCNC(=O)O[C@H]1CSS(=O)(=O)C[C@H]1O [Compound 34],8 ± 6%,
O=C(N[C@H]1CCS(=O)(=O)SC1)N[C@H]1CCS(=O)(=O)SC1 [Compound 35],25 ± 3%,inhibition of SC2 lentivector entry (in words): inactivity; inhibition of SC2 lentivector entry (in words) (50 μM): high activity
CC(=O)O[C@H]1CSS(=O)(=O)C[C@H]1O [Compound 36],34 ± 3%,
O=S(O)CC(O)C(O)CSSCC(O)C(O)CS(=O)O (stereo not drawn) [Compound 37],42 ± 32%,
CC(C)(C)[Si](C)(C)O[C@@H]1CS(=O)(=O)SC[C@@H]1OC(=O)NCC[N+](C)(C)C [Compound 38],43 ± 26%,
NCCNC(=O)O[C@H]1CSS(=O)(=O)C[C@H]1O [Compound 39],52 ± 31%,
O=S(O)CC(O)C(O)CSSCCSSCC(O)C(O)CS(=O)O (stereo not drawn) [Compound 40],64 ± 25%,
O=C(NCCCCCCNC(=O)O[C@H]1CSS(=O)(=O)C[C@H]1O)O[C@H]1CSS(=O)(=O)C[C@H]1O [Compound 41],>100 ^f %,inhibition of SC2 lentivector entry (in words): inactive
CC(C)(C)[Si](C)(C)O[C@H]1CS(=O)(=O)SC[C@H]1OC(=O)NCCNC(=O)CC(O)(CC(=O)NCCNC(=O)O[C@H]1CSS(=O)(=O)C[C@H]1O[Si](C)(C)C(C)(C)C)C(=O)NCCNC(=O)O[C@@H]1CSS(=O)(=O)C[C@@H]1O[Si](C)(C)C(C)(C)C (stereo partly drawn) [Compound 42],97 ± 15%,
CCCNC(=O)O[C@H]1CSS(=O)(=O)C[C@H]1O[Si](C)(C)C(C)(C)C [Compound 43],99 ± 12%,inhibition of SC2 lentivector entry (in words): inactivity
C#CCNC(=O)CC[C@H](NC(=O)COCCNC(=O)O[C@H]1CSS(=O)(=O)C[C@H]1O[Si](C)(C)C(C)(C)C)C(=O)NCCOCCNC(=O)O[C@H]1CSS(=O)(=O)C[C@H]1O[Si](C)(C)C(C)(C)C [Compound 44],103 ± 12%,
"O=C(O)Cn1[se]c2ccccc2c1=O [Compound 45, reference compound]",31 ± 3%,qualitative inhibition of SC2 uptake (heatmap): ++; inhibition of SC2 lentivector entry (in words) (50 μM): more active and nontoxic
"O=c1c2ccccc2[se]n1-c1ccccc1 [Compound 46, Ebselen, reference compound]",65 ± 13%,inhibition of SC2 lentivector entry (in words) (50 μM): more toxic than active
"CCN1C(=O)C2SSSSC1C(=O)N2CC(=O)O (stereo not drawn) [Compound 47, reference compound]",83 ± 12%,qualitative inhibition of SC2 uptake (heatmap): –
"CC(=O)/C=C1/C(=O)N(C)c2ccccc21 [Compound 48, super-cinnamaldehyde, reference compound]",>100%,inhibition of SC2 lentivector entry (in words) (5 μM): weak activation rather than inhibition
"CC#CI1OC(=O)c2ccccc21 [Compound 49, reference compound]",>100%,inhibition of SC2 lentivector entry (in words): did not inhibit; qualitative inhibition of SC2 uptake (heatmap): –

# From paper PMC9088311, “Cyclic Thiosulfonates for Thiol-Mediated Uptake: Cascade Exchangers, Transporters, Inhibitors” (JACS Au, 2022)
